For one test, the target named is T1, human TLR8 (hTLR8) (Homo sapiens, UniProt Q9NR97).
T1 construct: expressed in transfected cells
T1 sequence (Q9NR97 27-1041): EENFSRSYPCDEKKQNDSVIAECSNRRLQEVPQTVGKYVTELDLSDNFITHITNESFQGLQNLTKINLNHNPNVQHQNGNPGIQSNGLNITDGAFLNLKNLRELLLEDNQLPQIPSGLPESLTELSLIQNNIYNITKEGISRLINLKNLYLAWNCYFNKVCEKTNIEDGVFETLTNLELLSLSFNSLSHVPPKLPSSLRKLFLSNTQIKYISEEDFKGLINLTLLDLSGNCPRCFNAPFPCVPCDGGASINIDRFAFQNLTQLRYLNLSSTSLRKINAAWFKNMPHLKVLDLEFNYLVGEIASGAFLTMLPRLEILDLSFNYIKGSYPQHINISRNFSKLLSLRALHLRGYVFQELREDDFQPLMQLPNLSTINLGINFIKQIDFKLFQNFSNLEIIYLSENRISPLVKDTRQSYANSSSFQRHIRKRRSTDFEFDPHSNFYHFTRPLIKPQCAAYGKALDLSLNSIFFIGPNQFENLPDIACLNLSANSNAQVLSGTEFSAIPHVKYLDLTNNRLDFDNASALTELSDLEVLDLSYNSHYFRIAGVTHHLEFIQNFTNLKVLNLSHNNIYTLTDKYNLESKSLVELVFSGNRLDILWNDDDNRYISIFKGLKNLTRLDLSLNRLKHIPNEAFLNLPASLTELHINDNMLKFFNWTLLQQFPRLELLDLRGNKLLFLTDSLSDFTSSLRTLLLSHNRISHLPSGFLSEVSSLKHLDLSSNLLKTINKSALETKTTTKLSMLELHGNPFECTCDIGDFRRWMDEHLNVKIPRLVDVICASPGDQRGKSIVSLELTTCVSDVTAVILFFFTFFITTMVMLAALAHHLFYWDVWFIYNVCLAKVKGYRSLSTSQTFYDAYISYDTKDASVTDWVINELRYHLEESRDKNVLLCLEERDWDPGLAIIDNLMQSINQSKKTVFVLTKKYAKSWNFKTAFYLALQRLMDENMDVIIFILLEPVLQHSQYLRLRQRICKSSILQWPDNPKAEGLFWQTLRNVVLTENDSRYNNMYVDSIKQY
The test is described as follows: Human TLR8 agonist activity assay (measured in a similar manner). It counts as cell-based. The conditions noted are these: HEK-Blue TLR cells, SEAP reporter, measured in a similar manner to TLR7; some values average of multiple measurements. In short, it runs like this: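 Compounds were added to HEK-Blue TLR8 reporter cells, pre-incubated 16-18 h, then treated 18 h at 37° C, 5% CO2. SEAP output was measured with Quanti-Blue (30 min) at OD 620 nm. Some values are averages of multiple measurements.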

For another test, the target named is T2, human TLR7 (hTLR7) (Homo sapiens, UniProt Q9NYK1).
T2 construct: host or cells: HEK-Blue TLR7 cells (engineered human embryonic kidney cells)
T2 sequence (Q9NYK1 27-1049): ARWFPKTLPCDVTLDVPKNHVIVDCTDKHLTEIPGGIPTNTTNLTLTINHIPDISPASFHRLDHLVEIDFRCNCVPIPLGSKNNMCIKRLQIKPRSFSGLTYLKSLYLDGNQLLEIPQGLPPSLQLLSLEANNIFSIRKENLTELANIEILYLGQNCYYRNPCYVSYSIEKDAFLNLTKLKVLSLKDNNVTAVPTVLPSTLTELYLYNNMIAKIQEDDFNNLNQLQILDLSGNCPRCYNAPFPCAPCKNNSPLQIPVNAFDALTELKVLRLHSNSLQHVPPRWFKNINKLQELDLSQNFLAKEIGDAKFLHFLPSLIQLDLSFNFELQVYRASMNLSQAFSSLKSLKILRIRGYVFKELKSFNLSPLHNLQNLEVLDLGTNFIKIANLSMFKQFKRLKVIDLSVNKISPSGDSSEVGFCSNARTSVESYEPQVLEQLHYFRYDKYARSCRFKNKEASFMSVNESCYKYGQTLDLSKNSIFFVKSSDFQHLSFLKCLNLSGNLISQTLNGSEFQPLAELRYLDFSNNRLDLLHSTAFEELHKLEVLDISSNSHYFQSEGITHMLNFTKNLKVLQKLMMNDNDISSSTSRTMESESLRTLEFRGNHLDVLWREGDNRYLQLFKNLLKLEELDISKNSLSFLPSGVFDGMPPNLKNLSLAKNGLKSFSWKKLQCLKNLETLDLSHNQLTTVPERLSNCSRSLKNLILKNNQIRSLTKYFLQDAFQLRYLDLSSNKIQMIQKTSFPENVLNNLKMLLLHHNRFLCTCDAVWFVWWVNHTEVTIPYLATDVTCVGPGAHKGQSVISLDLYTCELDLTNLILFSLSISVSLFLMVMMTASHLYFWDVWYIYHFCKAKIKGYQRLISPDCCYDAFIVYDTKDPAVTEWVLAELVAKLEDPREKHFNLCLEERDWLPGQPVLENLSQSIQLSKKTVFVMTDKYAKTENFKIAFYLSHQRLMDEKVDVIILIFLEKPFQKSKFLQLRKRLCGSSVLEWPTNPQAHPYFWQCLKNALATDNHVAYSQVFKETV
The test is described as follows: Human TLR7 agonist activity assay (HEK-Blue TLR7 SEAP reporter). The class given is cell-based. The conditions noted are these: HEK-Blue TLR7 cells, 18 h incubation, Quanti-Blue, OD 620 nm, some values average of multiple measurements. In outline:
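HEK-Blue TLR7 cells seeded 16-18 h, then exposed to compound for 18 h at 37 °C, 5% CO2. Secreted SEAP read with Quanti-Blue at OD 620 nm after 30 min. EC50 taken as concentration giving half-maximal response between baseline and maximum; some values averaged over repeats.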

Structures are written as SMILES.

On to `CCCCN(CCO)c1nc(N)nc2cn(Cc3ccc(CNC(C)(C)C)n4ncnc34)nc12` [Compound 189, 2-((5-Amino-2-((5-((tert-butylamino)methyl)-[1,2,4]triazolo[1,5-a]pyridin-8-yl)methyl)-2H-pyrazolo[4,3-d]pyrimidin-7-yl)(butyl)amino)ethan-1-ol], for which the figures for the EC50 at human TLR8 (hTLR8) and at human TLR7 (hTLR7) were 0.57 µM and 0.793 µM, respectively.

With `CCCCN(CCO)c1nc(N)nc2cn(Cc3ccc(CN4CC(OC)C4)cc3OC)nc12` [Compound 5], the EC50 (usually the concentration giving half of the maximal effect) on human TLR8 (hTLR8) worked out at 0.7 µM; on human TLR7 (hTLR7), 0.643 µM.

Consider `CCCCN(CCO)c1nc(N)nc2cn(Cc3ccc(CNCCCCO)c4cccnc34)nc12` [Compound 59], for which the EC50 at human TLR8 (hTLR8) was found to be 1.14 µM; at human TLR7 (hTLR7), 1.55 µM.

`CCCCN(CCO)c1nc(N)nc2cn(Cc3ccc(CNC4CCOCC4)c4nccnc34)nc12` [Compound 206]: the EC50 on human TLR8 (hTLR8) was found to be 1.19 µM; at human TLR7 (hTLR7) it was 1.9 µM.

As to `CCCCN(CCO)c1nc(N)nc2cn(Cc3ccc(CNCC(C)(C)O)cc3OC)nc12` [Compound 9], the EC50 came out at 1.25 µM on human TLR8 (hTLR8) and 1.61 µM at human TLR7 (hTLR7).

For the compound `CCCCN(CCO)c1nc(N)nc2cn(Cc3c(F)cc(C4CCN(C(C)C)CC4)cc3C#N)nc12` [Compound 151], the EC50 at human TLR8 (hTLR8) worked out at 1.83 µM; on human TLR7 (hTLR7) it was 0.612 µM.

In the case of `CCCCN(CCO)c1nc(N)nc2cn(Cc3c(F)cc(CN[C@@H]4CCOC4)cc3F)nc12` [Compound 116], the results for the EC50 at human TLR8 (hTLR8) and at human TLR7 (hTLR7) were 1.02 µM and 0.031 µM, respectively.

For `CCCCN(CCO)c1nc(N)nc2cn(Cc3c(F)cc(CNCCO)cc3F)nc12` [Compound 113], the EC50 on human TLR8 (hTLR8) worked out at 2.96 µM; on human TLR7 (hTLR7), 0.937 µM.

Turning to `CCCCNCc1ccc(Cn2cc3nc(N)nc(N(CCO)CCCC)c3n2)c2ncccc12` [Compound 45], the EC50 was 0.205 µM at human TLR8 (hTLR8) and 0.28 µM at human TLR7 (hTLR7).

For the compound `CCCCN(CCO)c1nc(N)nc2cn(Cc3ccc(CNCC4CCC4)cc3C(F)F)nc12` [Compound 130], the EC50 at human TLR8 (hTLR8) amounted to 1.88 µM; on human TLR7 (hTLR7), 1.9 µM.

For `CCCCN(CCO)c1nc(N)nc2cn(Cc3ccc(CNC4CCN(C)CC4)c4cccnc34)nc12` [Compound 65], the EC50 on human TLR8 (hTLR8) stood at 2.38 µM; at human TLR7 (hTLR7), 2.09 µM.

As for `CCCCN(CCO)c1nc(N)nc2cn(Cc3c(F)cc(C4CCN(C(C)C)CC4)cc3OC)nc12` [Compound 40], the EC50 on human TLR8 (hTLR8) was 0.801 µM; at human TLR7 (hTLR7) it was 0.392 µM.

`CCCCN(c1nc(N)nc2cn(Cc3ccc(CN[C@@H]4CCOC4)cc3OC)nc12)C(C)CO` (some centres unmarked) [Compound 86]: the 50% effective concentration (EC50) at human TLR8 (hTLR8) is 0.311 µM; on human TLR7 (hTLR7), 0.229 µM.

For the origin of these results see US20250282776A1, “Bicyclic TLR7 Agonists and Uses Thereof” (Bristol-Myers Squibb Company, priority 2024, published 2025).
